According to patent US20230150974A1 (Foghorn Therapeutics Inc., priority 2020, published 2023):

Legend:
HiBiT-BRM = target: T1, HiBiT-BRM (Homo sapiens, UniProt P51531); test: HiBiT-BRM cell-based degradation assay (Nano-Glo HiBiT Lytic Detection); conditions: HeLa cells expressing HiBiT-BRM, 24 h; for DC50: read-out: BRM HiBit Degradation IC50
T1 construct: expressed in transfected cells
Procedure, shortened: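 Luminescence from HiBiT–LgBiT complementation in lysates of a stable HiBiT-BRM HeLa line measured after 24 h compound exposure. Degradation expressed as percent relative to DMSO-treated cells and cells given 2 μM of a known BRM/BRG1 degrader.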

HiBit-BRG1 = target: T2, HiBit-BRG1 (Homo sapiens, UniProt P51532); test: HiBit-BRG1 cell-based degradation assay (Nano-Glo HiBiT Lytic Detection); conditions: HeLa cells expressing HiBit-BRG1 and LgBit, 24 h; for DC50: read-out: BRG1 HiBit Degradation IC50; for Dmax: read-out: BRG1 HiBit Degradation Maximum (%)
T2 construct: expressed in transfected cells
Procedure, shortened: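 HeLa cells stably expressing HiBit-BRG1 plus LgBit; compound exposure 24 h; Nano-Glo HiBiT lytic luminescence; % degradation vs DMSO (0%) and 2 μM standard BRM/BRG1 degrader (100%).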

T2 sequence (P51532 whole entry): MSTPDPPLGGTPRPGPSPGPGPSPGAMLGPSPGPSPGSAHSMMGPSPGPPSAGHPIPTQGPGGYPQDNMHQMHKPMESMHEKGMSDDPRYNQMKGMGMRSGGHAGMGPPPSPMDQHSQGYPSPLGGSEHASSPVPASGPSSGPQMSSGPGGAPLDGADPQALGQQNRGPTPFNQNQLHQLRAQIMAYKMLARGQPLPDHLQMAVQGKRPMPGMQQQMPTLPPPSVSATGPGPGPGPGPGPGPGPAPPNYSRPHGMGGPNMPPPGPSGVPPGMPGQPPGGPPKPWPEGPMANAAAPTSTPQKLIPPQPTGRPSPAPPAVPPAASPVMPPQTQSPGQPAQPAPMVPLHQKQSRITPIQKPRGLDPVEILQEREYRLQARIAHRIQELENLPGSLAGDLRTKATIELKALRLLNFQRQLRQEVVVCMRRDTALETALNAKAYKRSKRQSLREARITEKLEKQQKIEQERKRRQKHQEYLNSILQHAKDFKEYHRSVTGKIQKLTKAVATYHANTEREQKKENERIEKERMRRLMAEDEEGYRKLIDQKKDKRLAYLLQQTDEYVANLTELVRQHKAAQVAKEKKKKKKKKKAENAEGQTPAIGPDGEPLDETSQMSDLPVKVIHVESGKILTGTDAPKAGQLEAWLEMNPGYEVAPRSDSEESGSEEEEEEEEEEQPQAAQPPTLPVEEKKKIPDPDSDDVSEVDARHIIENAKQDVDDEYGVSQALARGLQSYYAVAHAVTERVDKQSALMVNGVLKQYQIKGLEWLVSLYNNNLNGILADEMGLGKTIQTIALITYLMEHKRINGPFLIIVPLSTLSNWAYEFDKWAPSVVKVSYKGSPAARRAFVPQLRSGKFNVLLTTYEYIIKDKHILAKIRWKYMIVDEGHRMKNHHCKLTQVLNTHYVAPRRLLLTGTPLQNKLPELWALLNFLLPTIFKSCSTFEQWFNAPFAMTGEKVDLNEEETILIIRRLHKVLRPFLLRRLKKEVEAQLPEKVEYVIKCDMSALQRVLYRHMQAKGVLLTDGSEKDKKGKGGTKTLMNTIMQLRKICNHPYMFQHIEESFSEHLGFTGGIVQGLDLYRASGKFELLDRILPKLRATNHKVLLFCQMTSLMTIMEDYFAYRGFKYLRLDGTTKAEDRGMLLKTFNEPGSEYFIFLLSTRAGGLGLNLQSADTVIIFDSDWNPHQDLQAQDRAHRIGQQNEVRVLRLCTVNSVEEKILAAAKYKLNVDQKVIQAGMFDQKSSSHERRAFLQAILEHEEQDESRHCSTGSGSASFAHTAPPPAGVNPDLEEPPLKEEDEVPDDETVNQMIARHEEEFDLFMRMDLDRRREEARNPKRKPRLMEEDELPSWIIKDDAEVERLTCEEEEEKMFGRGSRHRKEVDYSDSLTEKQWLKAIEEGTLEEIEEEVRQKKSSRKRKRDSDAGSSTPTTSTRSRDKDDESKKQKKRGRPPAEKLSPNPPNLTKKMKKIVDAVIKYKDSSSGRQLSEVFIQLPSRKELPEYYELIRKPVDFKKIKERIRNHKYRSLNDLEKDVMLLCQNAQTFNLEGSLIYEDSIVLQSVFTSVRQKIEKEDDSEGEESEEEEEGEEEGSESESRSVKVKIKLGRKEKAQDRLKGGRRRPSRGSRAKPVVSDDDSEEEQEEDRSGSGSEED
T1 sequence (P51531 whole entry): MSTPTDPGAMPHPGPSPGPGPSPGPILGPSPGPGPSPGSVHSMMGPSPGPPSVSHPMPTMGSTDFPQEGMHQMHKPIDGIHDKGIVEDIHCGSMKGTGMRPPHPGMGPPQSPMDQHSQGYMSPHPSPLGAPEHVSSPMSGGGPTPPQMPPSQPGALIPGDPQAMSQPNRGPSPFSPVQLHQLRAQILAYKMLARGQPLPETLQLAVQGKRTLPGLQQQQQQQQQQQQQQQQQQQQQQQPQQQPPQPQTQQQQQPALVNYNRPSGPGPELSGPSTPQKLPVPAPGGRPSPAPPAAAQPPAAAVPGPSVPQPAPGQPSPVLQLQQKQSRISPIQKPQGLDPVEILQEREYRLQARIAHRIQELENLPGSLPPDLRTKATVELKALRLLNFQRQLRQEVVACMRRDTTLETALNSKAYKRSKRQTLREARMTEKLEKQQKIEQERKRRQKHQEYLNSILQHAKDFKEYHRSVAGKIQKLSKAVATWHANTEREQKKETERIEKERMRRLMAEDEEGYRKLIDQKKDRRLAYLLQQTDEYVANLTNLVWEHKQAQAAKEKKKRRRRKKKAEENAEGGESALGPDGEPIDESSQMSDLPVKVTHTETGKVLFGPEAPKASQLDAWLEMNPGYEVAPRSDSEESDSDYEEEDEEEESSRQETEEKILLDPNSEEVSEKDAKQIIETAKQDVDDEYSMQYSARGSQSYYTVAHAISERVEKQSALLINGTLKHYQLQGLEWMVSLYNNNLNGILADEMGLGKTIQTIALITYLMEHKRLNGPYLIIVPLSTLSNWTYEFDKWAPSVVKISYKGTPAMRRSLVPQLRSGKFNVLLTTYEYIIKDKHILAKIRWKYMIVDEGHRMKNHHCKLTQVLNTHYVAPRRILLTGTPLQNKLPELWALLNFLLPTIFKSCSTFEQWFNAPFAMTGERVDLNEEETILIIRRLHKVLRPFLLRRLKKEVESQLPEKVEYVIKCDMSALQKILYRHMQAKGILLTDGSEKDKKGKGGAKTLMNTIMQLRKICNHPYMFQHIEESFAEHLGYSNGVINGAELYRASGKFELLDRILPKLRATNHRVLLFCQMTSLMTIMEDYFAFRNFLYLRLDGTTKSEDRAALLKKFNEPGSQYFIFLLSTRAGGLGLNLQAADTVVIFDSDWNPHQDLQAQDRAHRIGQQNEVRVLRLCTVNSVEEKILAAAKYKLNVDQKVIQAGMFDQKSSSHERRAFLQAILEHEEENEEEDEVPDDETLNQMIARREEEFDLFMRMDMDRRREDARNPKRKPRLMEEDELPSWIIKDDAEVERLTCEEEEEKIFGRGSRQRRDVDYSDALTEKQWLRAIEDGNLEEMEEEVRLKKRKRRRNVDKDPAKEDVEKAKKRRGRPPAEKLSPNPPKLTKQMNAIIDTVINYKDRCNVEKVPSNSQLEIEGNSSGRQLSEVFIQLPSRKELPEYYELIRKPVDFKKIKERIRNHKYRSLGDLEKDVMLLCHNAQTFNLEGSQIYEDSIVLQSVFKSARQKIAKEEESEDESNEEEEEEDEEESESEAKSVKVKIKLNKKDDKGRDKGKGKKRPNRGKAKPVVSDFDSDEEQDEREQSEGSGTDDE

Row | SMILES | DC50 (HiBiT-BRM) [nM] | DC50 (HiBit-BRG1) [nM] | Dmax (HiBit-BRG1) [%] | BRM HiBit Degradation Maximum (%) (HiBiT-BRM)
1 | Cc1ncsc1-c1ccc([C@H](C)NC(=O)[C@@H]2C[C@@H](O)CN2C(=O)[C@@H](NC(=O)CCCCCCCCCCCCCCNCc2ccc(CCOc3cc(-c4ccccc4O)nnc3N)cc2)C(C)(C)C)cc1 [Compound 261, (2S,4R)-1-((S)-2-(15-((4-(2-((3-amino-6-(2-hydroxyphenyl)pyridazin-4-yl)oxy)ethyl)benzyl)amino)pentadecanamido)-3,3-dimethylbutanoyl)-4-hydroxy-N-((S)-1-(4-(4-methylthiazol-5-yl)phenyl)ethyl)pyrrolidine-2-carboxamide] | > 10 | > 1000 | > 50 | A (“A” indicates maximum degradation ≥75%)
2 | Cc1ncsc1-c1ccc([C@H](C)NC(=O)[C@@H]2C[C@@H](O)CN2C(=O)[C@@H](NC(=O)CCCCN2CCN(CCC(=O)NCc3ccc(CCOc4cc(-c5ccccc5O)nnc4N)cc3)CC2)C(C)(C)C)cc1 [Compound 262, (2S,4R)-1-((S)-2-(5-(4-(3-((4-(2-((3-amino-6-(2-hydroxyphenyl)pyridazin-4-yl)oxy)ethyl)benzyl)amino)-3-oxopropyl)piperazin-1-yl)pentanamido)-3,3-dimethylbutanoyl)-4-hydroxy-N-((S)-1-(4-(4-methylthiazol-5-yl)phenyl)ethyl)pyrrolidine-2-carboxamide] | > 1000 | > 1000 | < 50 | B (“B” indicates maximum degradation ≥50%)
3 | Cc1ncsc1-c1ccc([C@H](C)NC(=O)[C@@H]2C[C@@H](O)CN2C(=O)[C@@H](NC(=O)CCCCCCCCCCN2CCN(Cc3ccc(CCOc4cc(-c5ccccc5O)nnc4N)cc3)CC2)C(C)(C)C)cc1 [Compound 263] | > 10 | > 1000 | < 50 | A (“A” indicates maximum degradation ≥75%)
4 | Cc1ncsc1-c1ccc([C@H](C)NC(=O)[C@@H]2C[C@@H](O)CN2C(=O)[C@@H](NC(=O)CCCCCCCCCCN2C[C@@H]3CN(Cc4ccc(CCOc5cc(-c6ccccc6O)nnc5N)cc4)C[C@@H]3C2)C(C)(C)C)cc1 [Compound 264, (2S,4R)-1-((2S)-2-(11-(5-(4-(2-((3-amino-6-(2-hydroxyphenyl)pyridazin-4-yl)oxy)ethyl)benzyl)hexahydropyrrolo[3,4-c]pyrrol-2(1H)-yl)undecanamido)-3,3-dimethylbutanoyl)-4-hydroxy-N-((S)-1-(4-(4-methylthiazol-5-yl)phenyl)ethyl)pyrrolidine-2-carboxamide] | > 10 | > 100 | > 50 | A (“A” indicates maximum degradation ≥75%)

Second part, led by results:

Row | DC50 (HiBiT-BRM) [nM] | DC50 (HiBit-BRG1) [nM] | Dmax (HiBit-BRG1) [%] | SMILES | BRM HiBit Degradation Maximum (%) (HiBiT-BRM)
5 | > 1000 | > 1000 | < 50 | Cc1ncsc1-c1ccc(CNC(=O)[C@@H]2C[C@@H](O)CN2C(=O)[C@@H](NC(=O)CCCCN2CCN(CCC(=O)NCc3ccc(CCOc4cc(-c5ccccc5O)nnc4N)cc3)CC2)C(C)(C)C)cc1 [Compound 260, (2S,4R)-1-((S)-2-(5-(4-(3-((4-(2-((3-amino-6-(2-hydroxyphenyl)pyridazin-4-yl)oxy)ethyl)benzyl)amino)-3-oxopropyl)piperazin-1-yl)pentanamido)-3,3-dimethylbutanoyl)-4-hydroxy-N-(4-(4-methylthiazol-5-yl)benzyl)pyrrolidine-2-carboxamide] | C (“C” indicates maximum degradation <50%)
6 | > 1000 | > 1000 | < 50 | Cc1ncsc1-c1ccc([C@H](C)NC(=O)[C@@H]2C[C@@H](O)CN2C(=O)[C@@H](NC(=O)CCN2CCN(CCCCC(=O)NCc3ccc(CCOc4cc(-c5ccccc5O)nnc4N)cc3)CC2)C(C)(C)C)cc1 [Compound 265, (2S,4R)-1-((S)-2-(3-(4-(5-((4-(2-((3-amino-6-(2-hydroxyphenyl)pyridazin-4-yl)oxy)ethyl)benzyl)amino)-5-oxopentyl)piperazin-1-yl)propanamido)-3,3-dimethylbutanoyl)-4-hydroxy-N-((S)-1-(4-(4-methylthiazol-5-yl)phenyl)ethyl)pyrrolidine-2-carboxamide] | B (“B” indicates maximum degradation ≥50%)
7 | > 1000 | > 1000 | < 50 | Cc1ncsc1-c1ccc(CNC(=O)[C@@H]2C[C@@H](O)CN2C(=O)[C@@H](NC(=O)CN2CCC3(CCN(CCC(=O)NCc4ccc(CCOc5cc(-c6ccccc6O)nnc5N)cc4)CC3)CC2)C(C)(C)C)cc1 [Compound 266, (2S,4R)-1-((S)-2-(2-(9-(3-((4-(2-((3-amino-6-(2-hydroxyphenyl)pyridazin-4-yl)oxy)ethyl)benzyl)amino)-3-oxopropyl)-3,9-diazaspiro[5.5]undecan-3-yl)acetamido)-3,3-dimethylbutanoyl)-4-hydroxy-N-(4-(4-methylthiazol-5-yl)benzyl)pyrrolidine-2-carboxamide] | A (“A” indicates maximum degradation ≥75%)
8 | > 1000 | > 1000 | < 50 | Cc1ncsc1-c1ccc([C@H](C)NC(=O)[C@@H]2C[C@@H](O)CN2C(=O)[C@@H](NC(=O)CN2CCC3(CCN(CCC(=O)NCc4ccc(CCOc5cc(-c6ccccc6O)nnc5N)cc4)CC3)CC2)C(C)(C)C)cc1 [Compound 267, (2S,4R)-1-((S)-2-(2-(9-(3-((4-(2-((3-amino-6-(2-hydroxyphenyl)pyridazin-4-yl)oxy)ethyl)benzyl)amino)-3-oxopropyl)-3,9-diazaspiro[5.5]undecan-3-yl)acetamido)-3,3-dimethylbutanoyl)-4-hydroxy-N-((S)-1-(4-(4-methylthiazol-5-yl)phenyl)ethyl)pyrrolidine-2-carboxamide] | A (“A” indicates maximum degradation ≥75%)
